Measurements taken from patent US6338963B1, “Use of carbon monoxide dependent guanylyl cyclase modifiers to stimulate neuritogenesis” (NeoTherapeutics, Inc., priority 1994, dated 2002).
Read-outs that look alike come from different tables or passages of the source. Marks after values point to notes of the source that are not given here.

Assays:
[1] = target: acetylcholine receptors; format: binding, mice; conditions: for number of receptors (B max): mice treated 30 mg/kg 2 hours prior to sacrifice
[2] = test system: C57BL/6 mice; assay: Win-shift duration of memory trace, C57BL/6 mice; format: in vivo; conditions: for Correct (Mean score ± S.E.) / No. above chance/Total #: AIT-082 30 mg/kg
Protocol: To determine the duration of the memory trace, subjects were administered drug or saline and 30 minutes (PHY) or 1 hour (AIT-082 or THA) later they were given a single reference run with the milk reward in both goal boxes. After the indicated inter-trial delay, subjects were returned to the start box and given the first test trial with the milk reward only in the goal box opposite to the one entered on the previous correct trial. The subjects were given 10 trials with the reward alternating only after correct responses.
Previous work has established that normal adult Swiss Webster mice have a memory trace duration of 60 seconds in the win-shift paradigm which may be increased by the administration of AIT-082.

[3] = test system: C57BL/6 mice; assay: Win-shift test, C57BL/6 mice with age-induced memory deficits; format: in vivo; conditions: for subjects performing significantly above chance/total number of subjects: AIT-082 30 mg/kg
Protocol: Twelve-month old male C57BL/6 mice were screened for performance in the win-shift foraging test. Subjects were tested at various inter-trial time intervals. Subjects who could not perform to criteria (>60% correct) at 10 seconds delay were classified as having a severe deficit. Subjects who performed to criteria at 10 seconds but not at 30 seconds were classified as having a moderate degree of deficit and subjects who performed to criteria at 30 seconds but not at 60 seconds were classified as having mild deficit. As in Example 21, subjects in each group were treated with either AIT-082 or PHY to determine the extent to which the working memory trace was prolonged. The results are presented in Table M directly below and graphically represented in FIG. 10.

[4] = test system: rat caudate nuclei; assay: GAD activity in rat caudate nuclei damaged by NMDA; format: in vivo
Protocol: The effect of AIT-082 on in vivo neuroprotection was also assessed by assaying for glutamic acid decarboxylase (GAD) activity.
GAD activity in rat caudate nuclei was damaged in vivo by NMDA. Increasing amounts of NMDA (25-300 nmoles) were unilaterally infused into caudate nuclei of rats. Eight to 10 days after the injections, glutarnic acid decarboxylase (GAD) activity was assayed, as an index of the loss of GABA-ergic neurons. NMDA produced a dose-dependent lesion, which at its maximal extension caused a reduction of GAD activity by 50% in comparison with that of contralateral sham-operated nuclei (control). […] The necrotic areas are in white, whereas the shadow is the surrounding edema GAD activity was evaluated by measuring the ex novo formation of [^3H]GABA from dissected striata exposed to 1 μCi of [^3H]glutamate for 1 hour at 37° C. GABA was assayed by HPLC with fluorescence detection and the [3H]label associated with GABA was measured.

[5] = test system: basal forebrain cholinergic neurons; assay: Fimbria-fornix transection, ChAT-positive medial septum neurons; format: in vivo, F344 rats; conditions: AIT-082 30 mg/kg IP every three days, 14 days post-lesion
Protocol: This model is the gold standard for examining the effects of neurotrophic factors, neurotrophic factor-releasing agents, and neurotrophic factor analogues in the central nervous system (CNS). Fimbria-fornix transections (FFT) are performed to induce the degeneration of basal forebrain cholinergic (BFC) neurons. […] The infusion of nerve growth factor completely prevents the degeneration of these neurons. In this experiment, animals received AIT-082 to determine whether it would prevent lesion-induced degeneration of BFC neurons.
Adult female F344 rats received an intraperitoneal (IP) injection of AIT-082 (30 mg/kg) or saline one hour prior to receiving a unilateral fimbria-fornix transection (FFT) (n=6 per group). All animals survived the surgery and continued to receive IP injections of AIT-082 or vehicle every three days following the lesion. All animals were perfused with fixative at 14 days post-lesion and brains were sectioned and processed for choline acetyltransferase (ChAT) and p75 immunoreactivity. For analysis, three sections, 240 μm apart, were taken at the level of the medial septum and ChAT positive cells were counted both ipsilateral and contralateral to the lesion.
For the results of FIG. 44, ChAT-positive cells were counted in three sections, 240 μm apart. Data was expressed as a ratio of cell counts ipsilateral to the lesion divided by counts contralateral to the lesion. […]

[6] = Appearance and weight during one week in drinking water; format: in vivo, F344 rats; conditions: 30 mg/kg/day and ~3,000 mg/kg/day in drinking water
Protocol: Adult female F344 rats were given either AIT-082 (doses: 30 mg/kg/day or a higher dose of 30 mg/ml (˜3,000 mg/kg/day); n=6 rats per group) in their drinking water, or water alone, as a vehicle for control. The duration of the study was seven days, at which time the rats were anesthesized and perfused with ice-cold saline. The brains of the rats were rapidly removed. The brains were placed on a chilled glass plate and dissected into the following regions: basal forebrain, frontal cortex, parietal cortex, cerebellum, spinal cord, and hippocampal formation. Tissues were stored at −70° C. until assayed in a specific two-site ELISA for either NGF, BDNF, NT-3, or GNDF.
This effect was not seen in animals treated with AIT-082 at 3000 mg/kg/day.

[7] = test system: BDNF; assay: Summary of effects on growth factor mRNA and protein (Table R): BDNF; design: key: ± = mRNA; + = protein; nt = not tested
From the text: (§1) The constellation of effects of AIT-082 on production of mRNA encoding growth factors and on production of growth factor proteins is shown in Table R. The results summarized in […] show both transcriptional and translational effects on growth factors that are in the categories of neurotrophins, pleiotrophins, members of the S100 family of EF hand calcium binding proteins, and members of the TGFβ superfamily. As indicated, effects have been shown at both the mRNA (transcriptional) and protein (translational) levels.

[8] = test system: TGFβ1; assay: Summary of effects on growth factor mRNA and protein (Table R): TGFβ1; design: key: ± = mRNA; + = protein; nt = not tested; conditions: Cultured Cells
From the text: as §1

[9] = 79 different test systems

## O=C(CCn1cnc2c(=O)[nH]cnc21)Nc1ccc(C(=O)O)cc1 [AIT-082, N-4-carboxyphenyl-3-(6-oxohydropurin-9-yl)propanamide]
[1]
  affinity (Kd) for QNB: no effect
[1]; cortex
  number of receptors (B max): decrease
[1]; striatum
  number of receptors (B max): increase
[2]; AIT-082 30 mg/kg i.p., untreated 120 seconds
  duration of the memory trace: over 210 seconds
[2]; inter-trial interval 180 sec
  Correct (Mean score ± S.E.): 70 ± 15
  No. above chance/Total #: 4/6
[2]; inter-trial interval 210 sec
  Correct (Mean score ± S.E.): 78 ± 15
  No. above chance/Total #: 4/6
[2]; inter-trial interval 240 sec
  Correct (Mean score ± S.E.): 50 ± 6
  No. above chance/Total #: 0/6
[2]; inter-trial interval 270 sec
  Correct (Mean score ± S.E.): 50 ± 6
  No. above chance/Total #: 0/6
[3]; Mild deficit, interval 60 sec
  subjects performing significantly above chance/total number of subjects: 4/4*
[3]; Mild deficit, interval 90 sec
  subjects performing significantly above chance/total number of subjects: 2/4*
[3]; Moderate deficit, interval 10 sec
  subjects performing significantly above chance/total number of subjects: 6/6*
[3]; Moderate deficit, interval 30 sec
  subjects performing significantly above chance/total number of subjects: 4/6
[3]; Moderate deficit, interval 60 sec
  subjects performing significantly above chance/total number of subjects: 1/6
[3]; Moderate deficit, interval 90 sec
  subjects performing significantly above chance/total number of subjects: 0/6
[3]; Severe deficit, interval <10 sec
  subjects performing significantly above chance/total number of subjects: 0/6
[3]; mild deficit group, prolonged from 30
  duration of the memory trace after treatment: 90 s
[3]; moderate deficit group, prolonged from 10
  duration of the memory trace after treatment: 30 s
[4]; daily intraperitoneal injection for seven days, 200 mnoles NMDA
  GAD activity in damaged striata: nearly completely preserved GAD activity
[4]; local, 300 mnoles AIT-082 coinfused with 200 nmoles NMDA
  loss of GAD activity: almost completely prevented the loss of GAD activity
[5]
  lesion-induced loss of ChAT-labeled cells in the BFC region: did not reduce lesion-induced loss of ChAT-labeled cells
[6]
  appearance and weight: appeared normal and showed no overt signs of weight loss
[7]; Aged Brain
  BDNF, effect on mRNA/protein production: +
[7]; Lesioned Spinal Cord
  BDNF, effect on mRNA/protein production: ±
[7]; Normal Brain
  BDNF, effect on mRNA/protein production: +
[7]; Normal Spinal Cord
  BDNF, effect on mRNA/protein production: +
[8]
  TGFβ1, effect on mRNA/protein production: +
[9]
  toxicity in standard profile: absence of any toxicity
